In patent publication US11414416B1, “Compounds and uses thereof” (Foghorn Therapeutics Inc., priority 2019, dated 2022) one finds DC50 data, which are given here for 36 compounds.

Where only a bound is given, the exact number is not on record here.

Nanoluciferase-BRD9 fusion protein, sequence (Q9H8M2 whole entry, the tested form may be a part): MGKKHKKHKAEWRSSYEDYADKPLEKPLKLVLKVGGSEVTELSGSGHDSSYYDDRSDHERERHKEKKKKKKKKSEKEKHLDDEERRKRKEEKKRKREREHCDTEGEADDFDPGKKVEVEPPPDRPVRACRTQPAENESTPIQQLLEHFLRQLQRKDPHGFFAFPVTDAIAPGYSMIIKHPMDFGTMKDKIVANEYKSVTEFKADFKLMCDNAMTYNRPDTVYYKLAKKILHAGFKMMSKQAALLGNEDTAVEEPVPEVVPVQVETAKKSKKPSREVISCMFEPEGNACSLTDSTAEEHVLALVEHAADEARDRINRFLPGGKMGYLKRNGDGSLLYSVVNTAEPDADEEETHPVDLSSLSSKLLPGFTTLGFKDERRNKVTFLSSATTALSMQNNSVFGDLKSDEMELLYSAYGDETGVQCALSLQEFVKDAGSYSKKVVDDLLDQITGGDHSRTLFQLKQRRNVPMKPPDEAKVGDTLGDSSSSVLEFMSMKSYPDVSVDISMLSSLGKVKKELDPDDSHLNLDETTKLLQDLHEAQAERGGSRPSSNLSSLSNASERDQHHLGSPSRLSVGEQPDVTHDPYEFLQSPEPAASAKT

In the assay the target is Nanoluciferase-BRD9 fusion protein (Homo sapiens (Human), UniProt Q9H8M2). Kind of assay: SYO1 BRD9 NanoLuc degradation assay. The class given is cell-based. The following applies: Table 5C; SYO-1 cells expressing 3×FLAG-NLuc-BRD9, 6 hours; read-out: SYO1 BRD9-NanoLuc degradation IC50. In outline:
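Degradation was read as loss of nanoluciferase signal (Nano-Glo) after 6 h compound exposure in a stable SYO-1 line carrying 3×FLAG-NLuc-BRD9 (8000 cells/well). Normalised between DMSO (high) and a 1 μM known BRD9 degrader (low).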
As for `COc1cc(-c2cc(C)c(=O)n(C)c2C)cc(OC)c1CN1CCC2(C1)CN(c1ccc3c(c1)C(=O)N(C1CCC(=O)NC1=O)C3)C2` (stereo not drawn) [Compound D396], the DC50 is < 10 nM. For the compound `COc1cc(-c2cc(C)c(=O)n(C)c2C)cc(OC)c1CN1CCC(CN2CCC3(CC2)CN(c2ccc4c(c2)C(=O)N(C2CCC(=O)NC2=O)C4)C3)CC1` (stereo not drawn) [Compound D397], the DC50 was < 10 nM. Regarding `COc1cc(-c2cc(C(F)F)c(=O)n(C)c2)cc(OC)c1CN1CCN(CCC2CCN(c3ccc4c(c3)C(=O)N(C3CCC(=O)NC3=O)C4=O)CC2)CC1` (stereo not drawn) [Compound D398], the DC50 was < 10 nM. For the compound `COc1cc(-c2cc(C(F)F)c(=O)n(C)c2)cc(OC)c1CN1CCN(CCC2CCN(c3ccc4c(c3)C(=O)N(C3CCC(=O)NC3=O)C4)CC2)CC1` (stereo not drawn) [Compound D399], the DC50 is < 10 nM. Regarding `COc1cc(-c2cn(C)c(=O)c3cn(C)nc23)cc(OC)c1CN1CCN(CCC2CCN(c3ccc4c(c3)C(=O)N(C3CCC(=O)NC3=O)C4)CC2)CC1` (stereo not drawn) [Compound D400], the DC50 is < 10 nM. In the case of `CCCn1cc(-c2cc(OC)c(CN3CCC4(C3)CN(c3ccc5c(c3)C(=O)N(C3CCC(=O)NC3=O)C5)C4)c(OC)c2)cc(C(F)F)c1=O` (stereo not drawn) [Compound D401] it was < 10 nM. Take `COc1cc(-c2cn(C)c(=O)c3cn(C)nc23)cc(OC)c1CN1CC(CN2CCC3(CC2)CN(c2ccc4c(c2)C(=O)N(C2CCC(=O)NC2=O)C4)C3)C1` (stereo not drawn) [Compound D402]: the DC50 was < 10 nM. For the compound `COc1cc(-c2cc(C(F)F)c(=O)n(C)c2)cc(OC)c1CN1CCC2(C1)CN(c1ccc3c(c1)C(=O)N(C1CCC(=O)NC1=O)C3)C2` (stereo not drawn) [Compound D403], the DC50 is < 10 nM.

As to `C=CCn1cc(-c2cc(OC)c(CN3CCC4(C3)CN(c3ccc5c(c3)C(=O)N(C3CCC(=O)NC3=O)C5)C4)c(OC)c2)cc(C(F)F)c1=O` (stereo not drawn) [Compound D404], the DC50 is < 10 nM. `COc1cc(-c2cn(C)c(=O)c3cn(C)nc23)cc(OC)c1CN1CCC(CN2CCC3(CC2)CN(c2ccc4c(c2)C(=O)N(C2CCC(=O)NC2=O)C4)C3)CC1` (stereo not drawn) [Compound D405]: the DC50 is < 10 nM.

In the case of `COc1cc(-c2cc(C(F)F)c(=O)n(C)c2)cc(OC)c1CN1CCC2(C1)CN(c1ccc3c(c1)C(=O)N(C1CCC(=O)NC1=O)C3=O)C2` (stereo not drawn) [Compound D406], the DC50 was < 10 nM. Consider `COc1cc(-c2cc(C(F)F)c(=O)n(C)c2)cc(OC)c1CN1CCC(CN2CCC3(CC2)CN(c2ccc4c(c2)C(=O)N(C2CCC(=O)NC2=O)C4)C3)CC1` (stereo not drawn) [Compound D407], for which the DC50 is < 10 nM. In the case of `COc1cc(-c2cc(C(F)F)c(=O)n(C)c2)cc(OC)c1CN1CCC2(C1)CN(c1ccc3c(c1)CN(C1CCC(=O)NC1=O)C3=O)C2` (stereo not drawn) [Compound D408], the DC50 is < 10 nM. In the case of `COc1cc(-c2cc(C(F)F)c(=O)n(C)c2C)cc(OC)c1CN1CCC2(C1)CN(c1ccc3c(c1)C(=O)N(C1CCC(=O)NC1=O)C3)C2` (stereo not drawn) [Compound D409] it was < 10 nM; in that of `COc1cc(-c2cc(C(F)F)c(=O)n(C)c2C)cc(OC)c1CN1CCC(CN2CCC3(CC2)CN(c2ccc4c(c2)C(=O)N(C2CCC(=O)NC2=O)C4)C3)CC1` (stereo not drawn) [Compound D410], < 10 nM; in that of `COc1cc(-c2cn(C)c(=O)c3cnn(C)c23)cc(OC)c1CN1CCC2(CC1)CN(c1ccc3c(c1)CN(C1CCC(=O)NC1=O)C3=O)C2` (stereo not drawn) [Compound D411], < 10 nM.

Regarding `COc1cc(-c2cn(C)c(=O)c3cn(C)nc23)cc(OC)c1CN1CCC2(CC1)CN(c1ccc3c(c1)CN(C1CCC(=O)NC1=O)C3=O)C2` (stereo not drawn) [Compound D412], the DC50 is < 10 nM.

On to `COc1cc(-c2cn(C)c(=O)c3cnn(C)c23)cc(OC)c1CN1CCC2(CC1)CN(c1ccc3c(c1)C(=O)N(C1CCC(=O)NC1=O)C3=O)C2` (stereo not drawn) [Compound D413], for which the DC50 was < 10 nM. Regarding `COc1cc(-c2cn(C)c(=O)c3cnn(C)c23)cc(OC)c1CN1CCC2(CC1)CN(c1ccc3c(c1)C(=O)N(C1CCC(=O)NC1=O)C3)C2` (stereo not drawn) [Compound D414], the DC50 is < 10 nM. On to `COc1cc(-c2cn(C)c(=O)c3cn(C)nc23)cc(OC)c1CN1CCC2(CC1)CN(c1ccc3c(c1)C(=O)N(C1CCC(=O)NC1=O)C3=O)C2` (stereo not drawn) [Compound D415], for which the DC50 is < 10 nM. On to `COc1cc(-c2cn(C)c(=O)c3cn(C)nc23)cc(OC)c1CN1CCC2(CC1)CN(c1ccc3c(c1)C(=O)N(C1CCC(=O)NC1=O)C3)C2` (stereo not drawn) [Compound D416], for which the DC50 was < 10 nM. Regarding `CCn1cc2c(=O)n(C)cc(-c3cc(OC)c(CN4CCC5(CC4)CN(c4ccc6c(c4)C(=O)N(C4CCC(=O)NC4=O)C6)C5)c(OC)c3)c2n1` (stereo not drawn) [Compound D417], the DC50 is < 10 nM. For the compound `COc1cc(-c2cn(C)c(=O)c3[nH]cc(C)c23)cc(OC)c1CN1CCC2(CC1)CN(c1ccc3c(c1)C(=O)N(C1CCC(=O)NC1=O)C3=O)C2` (stereo not drawn) [Compound D418], the DC50 is < 10 nM. With `COc1cc(-c2cn(C)c(=O)c3nn(C)cc23)cc(OC)c1CN1CCC2(CC1)CN(c1ccc3c(c1)C(=O)N(C1CCC(=O)NC1=O)C3)C2` (stereo not drawn) [Compound D421], the DC50 is < 10 nM. Take `COc1cc(-c2cn(C)c(=O)c3[nH]c(C)cc23)cc(OC)c1CN1CCC2(CC1)CN(c1ccc3c(c1)C(=O)N(C1CCC(=O)NC1=O)C3)C2` (stereo not drawn) [Compound D422]: the DC50 was < 10 nM. In the case of `COc1cc(-c2cc(C)c(=O)n(C)c2C)cc(OC)c1CN1CCN(c2ccc3c(c2)CN(C2CCC(=O)NC2=O)C3=O)CC1` (stereo not drawn) [Compound D423] it was < 10 nM. For `[2H]C([2H])([2H])n1cc(-c2cc(OC)c(CN3[C@H](C)CN(c4ccc5c(c4)C(=O)N(C4CCC(=O)NC4=O)C5)C[C@H]3C)c(OC)c2)c2nn(C)cc2c1=O` (stereo partly drawn) [Compound D424], the DC50 was < 10 nM. For the compound `COc1cc(-c2cc(C(F)F)c(=O)n(C)c2)cc(OC)c1CN1CCC2(CC1)CN(c1ccc3c(c1)C(=O)N(C1CCC(=O)NC1=O)C3)C2` (stereo not drawn) [Compound D425], the DC50 was < 10 nM.

In the case of `COc1cc(-c2cn(C)c(=O)c3[nH]cc(C)c23)cc(OC)c1CN1CCC2(CC1)CN(c1ccc3c(c1)C(=O)N(C1CCC(=O)NC1=O)C3)C2` (stereo not drawn) [Compound D426], the DC50 is < 10 nM. On to `COc1cc(-c2cc(C)c(=O)n(C)c2C)cc(OC)c1CN1CCN(c2ccc3c(c2)C(=O)N(C2CCC(=O)NC2=O)C3)CC1` (stereo not drawn) [Compound D427], for which the DC50 is < 10 nM.

In the case of `COc1cc(-c2cn(C)c(=O)c3cncn23)cc(OC)c1CN1CCC2(CC1)CN(c1ccc3c(c1)C(=O)N(C1CCC(=O)NC1=O)C3)C2` (stereo not drawn) [Compound D428], the DC50 was < 10 nM. Consider `COc1cc(-c2cn(C)c(=O)cn2)cc(OC)c1CN1CCC2(CC1)CN(c1ccc3c(c1)C(=O)N(C1CCC(=O)NC1=O)C3)C2` (stereo not drawn) [Compound D429], for which the DC50 is > 1000 nM. For `COc1cc(-c2cn(C)c(=O)c(C)c2C)cc(OC)c1CN1CCC2(C1)CN(c1ccc3c(c1)C(=O)N(C1CCC(=O)NC1=O)C3=O)C2` (stereo not drawn) [Compound D430], the DC50 is < 10 nM. `COc1cc(-c2cn(C)c(=O)c3cccn23)cc(OC)c1CN1CCC2(CC1)CN(c1ccc3c(c1)C(=O)N(C1CCC(=O)NC1=O)C3)C2` (stereo not drawn) [Compound D431]: the DC50 is < 10 nM. As for `COc1cc(-c2cc(C(F)F)c(=O)n(C)c2)cc(OC)c1CN1CCC2(C1)CN(c1ccn3c(=O)n(C4CCC(=O)NC4=O)nc3c1)C2` (stereo not drawn) [Compound D432], the figure is 10 to 100 nM.

As to `COc1cc(-c2cn(C)c(=O)c3[nH]ncc23)cc(OC)c1CN1CCC2(CC1)CN(c1ccc3c(c1)C(=O)N(C1CCC(=O)NC1=O)C3)C2` (stereo not drawn) [Compound D433], the DC50 is < 10 nM.
